How the values were obtained:
[1] = Stability in 50% diluted pooled rat serum assessed compound degradation at 1.5 mg measured within 2 hrs by HPLC analysis; type: ADME, cell-free
[2] = Stability in 50% diluted pooled rat serum assessed parent compound remaining at 1.5 mg measured after 24 hrs by HPLC analysis; type: ADME, cell-free; conditions: read-out: Stability
[3] = test system: N2a; test: Neuroprotective activity against oxygen-glucose deprivation/reperfusion injury in mouse Neuro2a cells assessed as cell viability at 50 uM added 4 hrs prior to oxygen-glucose deprivation induction by MTT assay (Rvb 61 +/- 5%); type: functional; conditions: read-out: Activity
[4] = test system: N2a; test: Neuroprotective activity against oxygen-glucose deprivation/reperfusion injury in mouse Neuro2a cells assessed as cell viability at 6.25 uM added 4 hrs prior to oxygen-glucose deprivation induction by MTT assay (Rvb 61 +/- 5%); type: functional; conditions: read-out: Activity

Structure (SMILES)	Stability [1]	remaining at 24 h [2] [%]	viability at 50 µM [3] [%]	viability at 6.25 µM [4] [%]
CC(C)C[C@H](N)C(=O)N[C@H](CC(C)C)C(=O)N[C@@H](CO)C(=O)NCC(=O)N[C@H](C(=O)N[C@H](CC(C)C)C(=O)NCC(=O)NCC(=O)O)C(C)C		65	82	
CC(C)C[C@H](NC(=O)[C@@H](NC(=O)CNC(=O)[C@H](CO)NC(=O)[C@H](CC(C)C)NC(=O)[C@@H](N)CC(C)C)C(C)C)C(=O)NCC(=O)NCC(=O)O	Stable			
CC1=NN(c2ccccc2)C(=O)C1 [EDARAVONE]			90	

More lines, main results first:

Stability [1]	remaining at 24 h [2] [%]	Structure (SMILES)	viability at 50 µM [3] [%]	viability at 6.25 µM [4] [%]
Stable		CC(C)C[C@H](NC(=O)[C@@H](NC(=O)CNC(=O)[C@H](CO)NC(=O)[C@H](CC(C)C)NC(=O)[C@@H](N)CC(C)C)C(C)C)C(=O)NCC(=O)O		
	65	CC(C)C[C@H](N)C(=O)N[C@H](CC(C)C)C(=O)N[C@@H](CO)C(=O)NCC(=O)N[C@H](C(=O)O)C(C)C	86	
	65	CC(C)C[C@H](N)C(=O)N[C@H](CC(C)C)C(=O)N[C@@H](CO)C(=O)NCC(=O)N[C@H](C(=O)N[C@H](CC(C)C)C(=O)NCC(=O)O)C(C)C		79
Stable		CC(C)C[C@H](NC(=O)[C@@H](N)CC(C)C)C(=O)N[C@@H](CO)C(=O)NCC(=O)N[C@H](C(=O)O)C(C)C		

Reference: ChEMBL document CHEMBL4387789, “Linear Peptides Containing d-Leucine with Neuroprotective Activities from the Leech Whitmania pigra Whitman” (J Nat Prod, 2019)
